What all share (format): functional, cell-based
One experiment relates to NCI-H358. As to the kind of experiment: Antiproliferative activity against human NCI-H358 cells harboring KRAS G12C mutant assessed as reduction in cell viability incubated for 72 hrs by MTT assay. The settings on record: NCI-H358, 72 h. A general note: Formazan colour is commonly taken as a measure of viable cells.
In the next experiment the test system is NCI-H2228. As to the kind of experiment: Antiproliferative activity against human NCI-H2228 cells harboring wild type KRAS assessed as reduction in cell viability incubated for 72 hrs by MTT assay. Particulars: NCI-H2228, 72 h.
A further experiment deals with A549. The experiment can be described thus: Antiproliferative activity against human A549 cells harboring KRAS G12S mutant assessed as reduction in cell viability incubated for 72 hrs by MTT assay. The settings on record: A549, 72 h.
The next experiment relates to NCI-H23. The experiment can be described thus: Antiproliferative activity against human NCI-H23 cells harboring KRAS G12C mutant assessed as reduction in cell viability incubated for 72 hrs by MTT assay. The settings on record: NCI-H23, 72 h.

We go through 18 compounds from ChEMBL document CHEMBL5247585, “Design, synthesis, and evaluation of 4(1H)-quinolinone and urea derivatives as KRASG12C inhibitors with potent antitumor activity against KRAS-mutant non-small cell lung cancer” (Eur J Med Chem, 2022).

Each structure is given as a SMILES string.

In general, IC50 refers to the concentration needed to halve the response being measured. Turning to `C=CS(=O)(=O)N1CCC(NC(=O)Nc2ccc(Cl)c(C(F)(F)F)c2)CC1`, the half-maximal inhibitory concentration (IC50) came to 4.2 µM in the experiment on NCI-H358, 6.4 µM in the experiment on NCI-H2228, 3.3 µM in the experiment on A549 and 2.6 µM with NCI-H23.

In the case of `C=CS(=O)(=O)N1CCC(NC(=O)Nc2ccc(Cl)cc2)CC1`, the IC50 with NCI-H358 is 31.9 µM; with NCI-H2228, 27.5 µM; in the experiment on A549, over 100 µM; with NCI-H23 it was 18.9 µM.

As for `C=CC(=O)N1CC[C@H](NC(=O)Nc2ccc(Cl)c(Cl)c2)C1`, the IC50 in the experiment with NCI-H358 was 34.2 µM; with NCI-H2228, 65.3 µM; in the experiment with A549, over 100 µM; in the experiment with NCI-H23, 40.8 µM.

Take `C=CC(=O)N1CCC(NC(=O)Nc2ccc(Cl)cc2)CC1`: the IC50 with NCI-H358, in the experiment on NCI-H2228, with A549 and in the experiment on NCI-H23 was over 100 µM throughout.

Take `C=CC(=O)N1CC[C@@H](NC(=O)Nc2ccc(Cl)c(Cl)c2)C1`: the IC50 in the experiment on NCI-H358 was 45.5 µM; in the experiment on NCI-H2228, 61.9 µM; with A549 it was over 100 µM; in the experiment with NCI-H23, 41.4 µM.

Take `C=CC(=O)N1CC[C@@H](NC(=O)c2cc(=O)c3cc(Cl)c(I)cc3[nH]2)C1`: the IC50 was 10 µM with NCI-H358, 24.6 µM in the experiment with NCI-H2228, 20.3 µM in the experiment with A549 and 11.6 µM with NCI-H23.

For `COc1cccc(F)c1-c1cc(NC(=O)NC2CCN(C(=O)CCl)CC2)ccc1Cl`, the IC50 is 27.8 µM in the experiment with NCI-H358, over 100 µM in the experiment with NCI-H2228, 66.9 µM in the experiment on A549 and 31.1 µM in the experiment with NCI-H23.

In the case of `C=CC(=O)N1CCC(NC(=O)Nc2ccc(Cl)c(C(F)(F)F)c2)CC1`, the IC50 was over 100 µM in the experiment on NCI-H358, 45.8 µM in the experiment on NCI-H2228, over 100 µM with A549 and over 100 µM in the experiment with NCI-H23.

Turning to `C=CC(=O)N1CC[C@H](NC(=O)Nc2ccc(Cl)cc2)C1`, the IC50 with NCI-H358, with NCI-H2228, in the experiment on A549 and in the experiment with NCI-H23 was over 100 µM in each case.

Take `C=CC(=O)NC1CCN(C(=O)c2cc(=O)c3ccccc3[nH]2)CC1`: the IC50 was 44.8 µM in the experiment with NCI-H358, over 100 µM in the experiment with NCI-H2228, over 100 µM with A549 and over 100 µM in the experiment on NCI-H23.

`O=C(Nc1ccc(Cl)c(-c2ccccc2F)c1)NC1CCN(C(=O)CCl)CC1`: the IC50 in the experiment on NCI-H358 is 37.7 µM; in the experiment on NCI-H2228, 34.9 µM; with A549, over 100 µM; with NCI-H23, 42.8 µM.

Turning to `C=CC(=O)N1CC[C@@H](NC(=O)Nc2ccc(Cl)cc2)C1`, the IC50 in the experiment with NCI-H358, in the experiment with NCI-H2228, with A549 and in the experiment on NCI-H23 was over 100 µM each time.

Regarding `C=CC(=O)NC1CCN(C(=O)c2cc(=O)c3cc(Cl)ccc3[nH]2)CC1`, the IC50 with NCI-H358 is 29.7 µM; in the experiment on NCI-H2228 it was over 100 µM; with A549 it was over 100 µM; in the experiment with NCI-H23, 34.8 µM.

Consider `C=CC(=O)N1CC[C@H](NC(=O)c2cc(=O)c3cc(Cl)c(I)cc3[nH]2)C1`, for which the IC50 turned out to be 14.9 µM in the experiment with NCI-H358, 13.1 µM with NCI-H2228, 24.4 µM in the experiment with A549 and 10.3 µM in the experiment with NCI-H23.

For `C=CC(=O)N1CC[C@H](NC(=O)Nc2ccc(Cl)c(C(F)(F)F)c2)C1`, the IC50 was 22.8 µM in the experiment on NCI-H358, 38.2 µM in the experiment with NCI-H2228, over 100 µM with A549 and 28.9 µM with NCI-H23.

Take `C=CC(=O)NC1CCN(C(=O)c2cc(=O)c3cc(Cl)c(C(F)(F)F)cc3[nH]2)CC1`: the concentration for half-maximal inhibition (IC50) worked out at 18.5 µM with NCI-H358, 42.4 µM with NCI-H2228, 46.2 µM in the experiment on A549 and 8.2 µM in the experiment with NCI-H23.

Take `O=C(NC1CCN(C(=O)CCl)C1)c1cc(=O)c2cc(Cl)c(I)cc2[nH]1` (configuration not stated): the IC50 with NCI-H358 was 5.4 µM; in the experiment on NCI-H2228 it was 8.2 µM; with A549, 10.2 µM; in the experiment with NCI-H23 it was 3.8 µM.

Take `C=CC(=O)N1CC[C@@H](NC(=O)Nc2ccc(Cl)c(C(F)(F)F)c2)C1`: the IC50 in the experiment with NCI-H358 is 38.1 µM; with NCI-H2228 it was 58 µM; in the experiment with A549 it was over 100 µM; in the experiment on NCI-H23, 29.7 µM.
